# Experimental data as given in ChEMBL document CHEMBL1141654, “Protective effects of amide constituents from the fruit of Piper chaba on D-galactosamine/TNF-alpha-induced cell death in mouse hepatocytes” (2008).
# How the values were obtained:
# Format in all cases: functional
# [1] = system: Mus musculus; assay: Inhibition of D-galactosamine/LPS-induced TNFalpha level in ddY mouse serum at 5 mg/kg, po by ELISA
# [2] = system: Hepatocyte; assay: Inhibition of D-galactosamine-induced cell death in ddY mouse hepatocytes assessed as cell viability at 10 uM after 44 hrs by MTT assay; settings: read-out: Activity
# [3] = system: L929; assay: Inhibition of TNF-alpha-induced cell death in […] assessed as cell viability at 10 uM after 20 hrs by MTT assay; settings: L929, 20 h, read-out: Activity
# [4] = system: Mus musculus; assay: Inhibition of D-galactosamine/LPS-induced liver injury in ddY mouse assessed as serum GOT level at 2.5 mg/kg, po
# [5] = system: Hepatocyte; assay: Inhibition of D-galactosamine/TNFalpha-induced cell death in ddY mouse hepatocytes at 3 uM after 20 hrs by MTT assay
# [6] = system: Hepatocyte; assay: Inhibition of D-galactosamine/TNFalpha-induced cell death in ddY mouse hepatocytes at 30 uM after 20 hrs by MTT assay
# [7] = system: Mus musculus; assay: Inhibition of D-galactosamine/LPS-induced liver injury in ddY mouse assessed as serum GPT level at 10 mg/kg, po
# [8] = system: Mus musculus; assay: Inhibition of D-galactosamine/LPS-induced liver injury in ddY mouse assessed as serum GPT level at 2.5 mg/kg, po
# [9] = system: Hepatocyte; assay: Inhibition of D-galactosamine/TNFalpha-induced cell death in ddY mouse hepatocytes at 10 uM after 20 hrs by MTT assay
# [10] = system: Hepatocyte; assay: Inhibition of D-galactosamine-induced cell death in ddY mouse hepatocytes assessed as cell viability at 30 uM after 44 hrs by MTT assay; settings: read-out: Activity
# [11] = system: L929; assay: Inhibition of TNF-alpha-induced cell death in […] assessed as cell viability at 100 uM after 20 hrs by MTT assay; settings: L929, 20 h, read-out: Activity
# [12] = system: Mus musculus; assay: Inhibition of D-galactosamine/LPS-induced liver injury in ddY mouse assessed as serum GOT level at 5 mg/kg, po
# [13] = system: Hepatocyte; assay: Inhibition of D-galactosamine/TNFalpha-induced cell death in ddY mouse hepatocytes assessed as cell viability at 30 uM after 20 hrs by MTT assay; settings: read-out: Activity
# [14] = system: Mus musculus; assay: Inhibition of D-galactosamine/LPS-induced TNFalpha level in ddY mouse serum at 20 mg/kg, po by ELISA
# [15] = system: Mus musculus; assay: Inhibition of D-galactosamine/LPS-induced liver injury in ddY mouse assessed as serum GPT level at 5 mg/kg, po
# [16] = system: Hepatocyte; assay: Inhibition of D-galactosamine/TNFalpha-induced cell death in ddY mouse hepatocytes assessed as cell viability at 100 uM after 20 hrs by MTT assay; settings: read-out: Activity
# [17] = system: Hepatocyte; assay: Inhibition of D-galactosamine/TNFalpha-induced cell death in ddY mouse hepatocytes assessed as cell viability at 10 uM after 20 hrs by MTT assay; settings: read-out: Activity
# [18] = system: Mus musculus; assay: Inhibition of D-galactosamine/LPS-induced TNFalpha level in ddY mouse serum at 10 mg/kg, po by ELISA
# [19] = system: Hepatocyte; assay: Inhibition of D-galactosamine-induced cell death in ddY mouse hepatocytes assessed as cell viability at 100 uM after 44 hrs by MTT assay; settings: read-out: Activity
# [20] = system: Mus musculus; assay: Inhibition of D-galactosamine/LPS-induced liver injury in ddY mouse assessed as serum GOT level at 10 mg/kg, po
# [21] = system: L929; assay: Inhibition of TNF-alpha-induced cell death in […] assessed as cell viability at 30 uM after 20 hrs by MTT assay; settings: L929, 20 h, read-out: Activity
# [22] = system: Hepatocyte; assay: Inhibition of D-galactosamine/TNFalpha-induced cell death in ddY mouse hepatocytes at 1 uM after 20 hrs by MTT assay
Structure (SMILES),inhibition at 3 µM [5],inhibition at 30 µM [6],inhibition at 10 µM [9],inhibition at 1 µM [22],other results
O=C(/C=C/C=C/c1ccc2c(c1)OCO2)N1CCCCC1 [PIPERINE],23%,68%,46%,,inhibition in vivo at 5 mg/kg [1]: 15.7%; viability at 10 µM [2]: 40.6%; viability at 10 µM [3]: 64%; inhibition in vivo at 2.5 mg/kg [4]: 0.3%; inhibition in vivo at 10 mg/kg [7]: 94.3%; inhibition in vivo at 2.5 mg/kg [8]: 23.2%; viability at 30 µM [10]: 36.5%; viability at 100 µM [11]: 92.2%; inhibition in vivo at 5 mg/kg [12]: 50.7%; viability at 30 µM [13]: 76.1%; inhibition in vivo at 20 mg/kg [14]: -2.2%; inhibition in vivo at 5 mg/kg [15]: 51.1%; viability at 100 µM [16]: 84.3%; viability at 10 µM [17]: 72.4%; inhibition in vivo at 10 mg/kg [18]: 9.2%; viability at 100 µM [19]: 29.2%; inhibition in vivo at 10 mg/kg [20]: 96.1%; viability at 30 µM [21]: 66.2%
CCCCC/C=C\CCCCCCCC/C=C/C=C/C(=O)NCC(C)C,3%,27%,19%,10%,
CC(C)CNC(=O)/C=C/CCCC/C=C/c1ccc2c(c1)OCO2 [RETROFRACTAMIDE C],51%,37%,31%,30%,
CC(C)CNC(=O)/C=C/C=C/CCCCCCCC/C=C/c1ccc2c(c1)OCO2 [BRACHYSTAMIDE B],22%,-6%,11%,,
C[C@]12CCC(=O)C=C1CC[C@@H]1[C@@H]2[C@@H](O)C[C@@]2(C)[C@H]1CC[C@]2(O)C(=O)CO [HYDROCORTISONE],,,,,inhibition in vivo at 10 mg/kg [7]: 97.7%; inhibition in vivo at 10 mg/kg [18]: 92.1%; inhibition in vivo at 10 mg/kg [20]: 94.2%
"CC(C)CNC(=O)/C=C/CCc1ccc2c(c1)OCO2 [4,5-DIHYDROPIPERLONGUMININE]",43%,66%,43%,34%,
O=Cc1ccc2c(c1)OCO2 [PIPERONAL],20%,39%,23%,,
O=C(/C=C/CCCC/C=C/c1ccc2c(c1)OCO2)N1CCCCC1 [PIPERNONALINE],17%,48%,31%,,
O=C1C=CCCN1C(=O)CCc1ccccc1 [PIPERCHABAMIDE A],29%,70%,32%,,
O=C(/C=C/CCc1ccc2c(c1)OCO2)N1CCCCC1 [PIPERANINE],31%,53%,50%,,
CC(C)CNC(=O)/C=C/C=C/c1ccc2c(c1)OCO2 [PIPERLONGUMININE],50%,66%,54%,27%,
O=C(CCCCCC/C=C/c1ccc2c(c1)OCO2)N1CCCCC1 [PIPERROLEIN B],29%,64%,33%,20%,
CC(C)CNC(=O)/C=C/C=C/CC/C=C/c1ccc2c(c1)OCO2 [RETROFRACTAMIDE A],32%,60%,35%,40%,
CCCCC/C=C/C=C/C(=O)NCC(C)C [PELLITORIN],19%,42%,25%,,
CCC(C)CNC(=O)/C=C/C=C/c1ccc2c(c1)OCO2 (stereo not given) [PIPERCHABAMIDE E],34%,98%,71%,,
COC(=O)/C=C/C=C/c1ccc2c(c1)OCO2 [METHYL PIPERATE],18%,21%,29%,,
O=C(/C=C/C=C/CCCC/C=C/c1ccc2c(c1)OCO2)N1CCCCC1 [PIPERUNDECALIDIENE],40%,58%,49%,27%,
O=C(/C=C/CCCCCC/C=C/c1ccc2c(c1)OCO2)N1CCCCC1 [PIPERCHABAMIDE B],63%,78%,74%,,
CC(C)CNC(=O)/C=C/C=C/CCCCCC/C=C/c1ccc2c(c1)OCO2 [GUINEENSINE],26%,12%,33%,,
CC(C)CNC(=O)/C=C/CCCCCC/C=C/c1ccc2c(c1)OCO2 [PIPERCHABAMIDE D],57%,37%,77%,,
CCCCCCCCCCCCC/C=C/C=C/C(=O)NCC(C)C,37%,43%,41%,15%,
CC(C)CNC(=O)/C=C/C=C/CCCC/C=C/c1ccc2c(c1)OCO2 [RETROFRACTAMIDE B],54%,26%,51%,32%,
CCCCCCC/C=C/C=C/C(=O)NCC(C)C,21%,44%,31%,12%,
O=C(/C=C/C=C/CCCCCC/C=C/c1ccc2c(c1)OCO2)N1CCCCC1 [PIPERCHABAMIDE C],42%,68%,52%,,
